Values of other authors in article PMC7395068, “The evolution of strategies to minimise the risk of human drug-induced liver injury (DILI) in drug discovery and development” (Archives of Toxicology, 2020).
Like-named read-outs stand apart in the source and are kept apart here.

Key:
[1] = cited from earlier work
[2] = cited from earlier work; remark: listed apart in the source
HepG2 cells [3] = conditions: cited from earlier work
[4] = system: THLE or HepG2 cells, isolated mitochondria, BSEP; conditions: cited from earlier work
human hepatocytes = conditions: cited from earlier work
HepG2 cells [5] = conditions: cited from earlier work; remark: listed apart in the source
[6] = system: isolated mouse liver mitochondria; conditions: cited from earlier work
[7] = system: primary human hepatocytes, NIH3T3 fibroblasts, BSEP, CYP3A4; conditions: In vitro Assay; ref Schadt 2015; cited from earlier work
[8] = In vitro Assay, ref Persson 2013
[9] = In vitro Assay, ref Porceddu 2012

O=C(O)CCCCCCNC1c2ccccc2CCc2ccccc21 [amineptine]
DILI +VE (5-8), DILI -VE (-4) ([1]; in vivo): +VE | DILI severity category ([1]; in vivo): vMost-DILI-Concern | In vivo DILI ([2]; in vivo): +VE | Cluser analysis (HepG2 cells [3]): -VE | Structural based (HCI) (HepG2 cells [3]): -VE | Partition Hybrid HRM Score [4]: +VE | Ro2 Hybrid HRM Score [4]: -VE

Nc1ccc(C(=O)O)c(O)c1 [aminosalicylic acid]
In vivo DILI ([2]; in vivo): +VE | Structural based (HCI) (human hepatocytes): +VE | Cluser analysis (HepG2 cells [3]; [8]): -VE | Structural based (HCI) (HepG2 cells [3]; [8]): -VE

Nc1ccc(C(=O)O)c(O)c1 [aminosalycilate]
Structural based (HCI) (HepG2 cells [5]): +VE (key: +VE: lowest HCI endpoint IC50 (or in the absence of dose–response < 100 µM) < 30 × total human plasma exposure levels (Cmax.tot))

CCN1CCCC1CNC(=O)c1cc(S(=O)(=O)CC)c(N)cc1OC (centres unmarked) [amisulpride]
In vivo DILI ([2]; ref Persson 2013): -VE | Cluser analysis (HepG2 cells [3]; [8]): -VE | Structural based (HCI) (HepG2 cells [3]; [8]): -VE

O=C(O)CCCC[C@@H]1SC[C@@H]2NC(=O)N[C@@H]21 [biotin]
In vivo DILI ([2]; in vivo): -VE | Structural based (HCI) (human hepatocytes): -VE | Cluser analysis (HepG2 cells [3]): -VE | Structural based (HCI) (HepG2 cells [3]): -VE | in vitro data EC20<=2uM [6]: -VE

Clc1ccccc1C(c1ccccc1)(c1ccccc1)n1ccnc1 [clotrimazole]
DILI +VE (5-8), DILI -VE (-4) ([1]; ref Chen 2016): +VE | DILI severity category ([1]; ref Chen 2016): vLess-DILI-Concern | In vivo DILI ([2]; […]): -VE | In vivo DILI ([2]; ref Aleo 2019): +VE | In vivo DILI ([2]; ref Porceddu 2012): +VE | In vivo DILI ([2]; ref Xu 2008): -VE | Structural based (HCI) (human hepatocytes; In vitro Assay, ref Xu 2008): -VE | Partition Hybrid HRM Score ([4]; In vitro Assay, ref Aleo 2019): +VE | Ro2 Hybrid HRM Score ([4]; In vitro Assay, ref Aleo 2019): +VE | in vitro data EC2<=1x Cmax [6, 9]: +VE | in vitro data EC20<=2uM [6, 9]: +VE

O=C(O)c1cc(-c2ccc(F)cc2F)ccc1O [diflunisal]
DILI +VE (5-8), DILI -VE (-4) ([1]; ref Chen 2016): +VE | DILI severity category ([1]; ref Chen 2016): vMost-DILI-Concern | In vivo DILI ([2]; ref Porceddu 2012): +VE | In vivo DILI ([2]; ref Xu 2008): +VE | Structural based (HCI) (human hepatocytes; In vitro Assay, ref Xu 2008): +VE | in vitro data EC2<=1x Cmax [6, 9]: +VE | in vitro data EC20<=2uM [6, 9]: +VE

C#Cc1cccc(Nc2ncnc3cc(OCCOC)c(OCCOC)cc23)c1 [erlotinib]
DILI +VE (5-8), DILI -VE (-4) ([1]; ref Chen 2016): +VE | DILI severity category ([1]; ref Chen 2016): vMost-DILI-Concern | In vivo DILI ([2]; ref Porceddu 2012): +VE | in vitro data EC2<=1x Cmax [6, 9]: +VE | in vitro data EC20<=2uM [6, 9]: +VE

CC(C)(C(=O)O)c1ccc(C(O)CCCN2CCC(C(O)(c3ccccc3)c3ccccc3)CC2)cc1 (centres unmarked) [fexofenadine]
Cluser analysis (HepG2 cells [3]): -VE

Nc1nc2ncc(CNc3ccc(C(=O)N[C@@H](CCC(=O)O)C(=O)O)cc3)nc2c(=O)[nH]1 [folic acid]
Partition Hybrid HRM Score ([4]; In vitro Assay, ref Aleo 2019): -VE | Ro2 Hybrid HRM Score ([4]; In vitro Assay, ref Aleo 2019): -VE | in vitro data EC2<=1x Cmax [6, 9]: +VE

Nc1nc(=O)c2c([nH]1)NC[C@@H](CNc1ccc(C(=O)N[C@@H](CCC(=O)O)C(=O)O)cc1)N2C=O [folinic acid]
In vivo DILI ([2]; ref Persson 2013): -VE | Cluser analysis (HepG2 cells [3]; [8]): -VE | Structural based (HCI) (HepG2 cells [3]; [8]): -VE

COc1cc2ncnc(Nc3ccc(F)c(Cl)c3)c2cc1OCCCN1CCOCC1 [gefitinib]
Partition Hybrid HRM Score ([4]; In vitro Assay, ref Aleo 2019): +VE | Ro2 Hybrid HRM Score ([4]; In vitro Assay, ref Aleo 2019): +VE | in vitro data EC2<=1x Cmax [6, 9]: +VE

Cc1ccc(NC(=O)c2ccc(CN3CCN(C)CC3)cc2)cc1Nc1nccc(-c2cccnc2)n1 [imatinib]
DILI +VE (5-8), DILI -VE (-4) ([1]; in vivo): +VE | DILI severity category ([1]; in vivo): vMost-DILI-Concern | In vivo DILI ([2]; in vivo): +VE | in vitro data EC2<=1x Cmax [6, 9]: +VE

Nc1ccn([C@@H]2CS[C@H](CO)O2)c(=O)n1 [lamivudine]
DILI +VE (5-8), DILI -VE (-4) ([1]; in vivo): +VE | DILI severity category ([1]; in vivo): vLess-DILI-Concern | Partition Hybrid HRM Score [4]: -VE | in vitro data EC2<=1x Cmax [6, 9]: +VE

CCN(CC)CCNC(=O)c1cc(Cl)c(N)cc1OC [metoclopramide]
Structural based (HCI) (HepG2 cells [5]): -VE | DILI +VE (5-8), DILI -VE (-4) ([1]; in vivo): +VE | DILI severity category ([1]; in vivo): vLess-DILI-Concern

Cc1c(O)cccc1C(=O)N[C@@H](CSc1ccccc1)[C@H](O)CN1C[C@H]2CCCC[C@H]2C[C@H]1C(=O)NC(C)(C)C [nelfinavir]
DILI +VE (5-8), DILI -VE (-4) ([1]; ref Chen 2016): +VE | DILI severity category ([1]; ref Chen 2016): vLess-DILI-Concern | In vivo DILI ([2]; ref Porceddu 2012): +VE | in vitro data EC2<=1x Cmax [6, 9]: +VE | in vitro data EC20<=2uM [6, 9]: +VE

CN1CCC[C@H]1c1cccnc1 [nicotine]
In vivo DILI ([2]; in vivo): -VE | Cluser analysis (HepG2 cells [3]): -VE | in vitro data EC20<=2uM [6]: -VE

CCCN1C[C@H](CSC)C[C@@H]2c3cccc4[nH]cc(c34)C[C@H]21 [pergolide]
DILI +VE (5-8), DILI -VE (-4) ([1]; ref Chen 2016): -VE | DILI severity category ([1]; ref Chen 2016): Ambiguous DILI-concern | In vivo DILI ([2]; ref Persson 2013): -VE | Cluser analysis (HepG2 cells [3]; [8]): -VE | Structural based (HCI) (HepG2 cells [3]; [8]): -VE

CCCc1cc(=O)[nH]c(=S)[nH]1 [propylthiouracil]
DILI +VE (5-8), DILI -VE (-4) ([1]; in vivo): +VE | DILI severity category ([1]; in vivo): vMost-DILI-Concern | Cluser analysis (HepG2 cells [3]): -VE | Structural based (HCI) (HepG2 cells [3]): -VE | in vitro data EC2<=1x Cmax [6, 9]: +VE

CCCc1cc(=O)[nH]c(=S)[nH]1 [propythiouracil]
Structural based (HCI), In vitro Assay (HepG2 cells [5]; HepG2 HCI, ref O'Brien 2006): +VE

CC(C)c1nc(CN(C)C(=O)N[C@H](C(=O)N[C@@H](Cc2ccccc2)C[C@H](O)[C@H](Cc2ccccc2)NC(=O)OCc2cncs2)C(C)C)cs1 [ritonavir]
DILI +VE (5-8), DILI -VE (-4) ([1]; ref Chen 2016): +VE | DILI severity category ([1]; ref Chen 2016): vMost-DILI-Concern | In vivo DILI ([2]; ref Aleo 2019): +VE | In vivo DILI ([2]; ref Porceddu 2012): +VE | In vivo DILI ([2]; ref Schadt 2015): +VE | Partition Hybrid HRM Score ([4]; In vitro Assay, ref Aleo 2019): +VE | Ro2 Hybrid HRM Score ([4]; In vitro Assay, ref Aleo 2019): +VE | in vitro data EC2<=1x Cmax [6, 9]: +VE | in vitro data EC20<=2uM [6, 9]: +VE

CC(C)(C)NC(=O)[C@@H]1C[C@@H]2CCCC[C@@H]2CN1C[C@@H](O)[C@H](Cc1ccccc1)NC(=O)[C@H](CC(N)=O)NC(=O)c1ccc2ccccc2n1 [saquinavir]
DILI +VE (5-8), DILI -VE (-4) ([1]; ref Chen 2016): +VE | DILI severity category ([1]; ref Chen 2016): vLess-DILI-Concern | In vivo DILI ([2]; ref Porceddu 2012): +VE | In vivo DILI ([2]; ref Schadt 2015): -VE | in vitro data EC2<=1x Cmax [6, 9]: +VE | in vitro data EC20<=2uM [6, 9]: +VE

CNC(=O)c1cc(Oc2ccc(NC(=O)Nc3ccc(Cl)c(C(F)(F)F)c3)cc2)ccn1 [sorafenib]
DILI +VE (5-8), DILI -VE (-4) ([1]; ref Chen 2016): +VE | DILI severity category ([1]; ref Chen 2016): vMost-DILI-Concern | In vivo DILI ([2]; ref Aleo 2019): +VE | In vivo DILI ([2]; ref Porceddu 2012): +VE | Partition Hybrid HRM Score ([4]; In vitro Assay, ref Aleo 2019): +VE | Ro2 Hybrid HRM Score ([4]; In vitro Assay, ref Aleo 2019): +VE | in vitro data EC2<=1x Cmax [6, 9]: +VE | in vitro data EC20<=2uM [6, 9]: -VE

CNS(=O)(=O)Cc1ccc2[nH]cc(CCN(C)C)c2c1 [sumatriptan]
DILI +VE (5-8), DILI -VE (-4) ([1]; ref Chen 2016): -VE | DILI severity category ([1]; ref Chen 2016): Ambiguous DILI-concern | In vivo DILI ([2]; ref Porceddu 2012): -VE | In vivo DILI ([2]; ref Xu 2008): -VE | Structural based (HCI) (human hepatocytes; In vitro Assay, ref Xu 2008): -VE | in vitro data EC2<=1x Cmax [6, 9]: -VE | in vitro data EC20<=2uM [6, 9]: -VE

COc1cccc(C2(O)CCCCC2CN(C)C)c1 (centres unmarked) [tramadol]
DILI +VE (5-8), DILI -VE (-4) ([1]; ref Chen 2016): -VE | DILI severity category ([1]; ref Chen 2016): Ambiguous DILI-concern | In vivo DILI ([2]; ref Porceddu 2012): +VE | in vitro data EC2<=1x Cmax [6, 9]: -VE | in vitro data EC20<=2uM [6, 9]: -VE

CN[C@H](CC(C)C)C(=O)N[C@H]1C(=O)N[C@@H](CC(N)=O)C(=O)N[C@H]2C(=O)N[C@H]3C(=O)N[C@H](C(=O)N[C@H](C(=O)O)c4cc(O)cc(O)c4-c4cc3ccc4O)[C@H](O)c3ccc(c(Cl)c3)Oc3cc2cc(c3O[C@@H]2O[C@H](CO)[C@@H](O)[C@H](O)[C@H]2O[C@H]2C[C@](C)(N)[C@H](O)[C@H](C)O2)Oc2ccc(cc2Cl)[C@H]1O [vancomycin]
DILI +VE (5-8), DILI -VE (-4) ([1]; in vivo): +VE | DILI severity category ([1]; in vivo): vLess-DILI-Concern | Structural based (HCI) (human hepatocytes): +VE | Cluser analysis (HepG2 cells [3]): -VE | Partition Hybrid HRM Score [4]: +VE | Ro2 Hybrid HRM Score [4]: -VE

CC[C@]1(O)C[C@@H]2CN(CCc3c([nH]c4ccccc34)[C@@](C(=O)OC)(c3cc4c(cc3OC)N(C)[C@H]3[C@@](O)(C(=O)OC)[C@H](OC(C)=O)[C@]5(CC)C=CCN6CC[C@]43[C@@H]65)C2)C1 [vinblastine]
Cellular toxicity (3T3 cells) [7]: -VE | GSH adduct HML [7]: -VE | Hepatocyte cellular toxicity [7]: +VE | MitoTox 3T3 [7]: +VE | TDI CYP3A4 [7]: +VE | hBSEP inhibition [7]: +VE | in vitro data EC2<=1x Cmax [6, 9]: -VE
